Measured values taken from patent US6500835B2, “Preventive or therapeutic drugs for fibrosis containing chymase inhibitors as the active ingredient” (Suntory Limited, priority 2000, dated 2002).
Structures can show the parent of a compound that is named as a salt.

Experiments:
[1] = biological target: T1, Human heart chymase (Homo sapiens, UniProt P23946); assay: Measurement of chymase inhibitory activity (Suc-Ala-Ala-Pro-Phe-MCA substrate); format: biochemical; conditions: 30° C., 10 min preincubation
T1 construct: Human heart chymase was purified according to the method of Urata et al; from tissue; host or cells: human heart
T1 sequence (P23946 22-247): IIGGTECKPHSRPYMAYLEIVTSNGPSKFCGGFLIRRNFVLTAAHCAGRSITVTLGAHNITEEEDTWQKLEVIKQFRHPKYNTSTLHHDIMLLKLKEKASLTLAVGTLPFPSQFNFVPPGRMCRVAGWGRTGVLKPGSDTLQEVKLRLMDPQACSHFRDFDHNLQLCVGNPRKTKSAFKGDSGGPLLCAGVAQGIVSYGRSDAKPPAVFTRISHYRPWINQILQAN
Procedure: Human heart chymase was purified according to the method of Urata et al. (J. Biol. Chem., 1990, 265, 22348). The inhibitory activity off the compound of the present invention was determined as follows. Purified enzyme was diluted with 0.1M tris HCl buffer (pH=7.5), 1M sodium chloride, and 0.01% Triton X-100 to obtain an enzyme solution having appropriate concentrations. Suc-Ala-Ala-Pro-Phe-MCA (Peptide Institute Inc.) was dissolved in 10 mM dimethyl sulfoxide (hereinafter referred to as DMSO) and diluted 20-fold with 0.1 M Tris-HCl buffer (pH 7.5) containing 1 M sodium chloride and 0.01% Triton X-100 to an appropriate concentration to prepare substrate solution.
5 μl of the test sample in DMSO was added to 75 μl of the enzyme solution and preincubated at 30° C. for 10 minutes. Then, 20 μl of the subs rate solution was added to the test sample-enzyme mixture, and incubated at 30° C. Ten minutes later, 50 μl of 30% acetic acid was added to stop the enzymatic reaction, and the amount of AMC formed was determined using a fluorophotometer. At the same time, 5 μl of DMSO in stead of the test sample was added and reacted simultaneously as a control. The inhibitory activity to human chymase was calculated based on the value of the control, and then the inhibition percentage and the 50% inhibition concentration (IC50) were determined.

[2] = tested on: chymase; assay: Effects of chymase inhibitor on chymase activity in tissues of mice after intraperitoneal administration; format: in vivo; conditions: ICR mice, 12 and 24 hours after administration
Procedure: (§1) A chymase inhibitor (Compound 18) was administered intraperitoneally in ICR mice (8 weeks old, n=3). After 12 hours and 24 hours, the chymase was extracted from the small intestines, tongues, back skins, front legs, and rear legs of the mice and the enzymatic activity thereof was determined. The chymase was extracted using a 10 mM phosphate buffer including 2M KCl and 0.1% polyethylene octylphenyl ether (Triton X-100) from the tissues. Chymase activity was determined, by measuring the rate of hydrolysis of synthesized substrate Suc-Phe-Pro-Phe-p-nitroanilide. Saline was administered in 24 hours in control groups.

[3] = tested on: Tsk mice; assay: Tsk mice, model for scleroderma: thickness of subcutaneous fibrous layer; format: in vivo; conditions: 50 mg/kg/day i.p. once a day for 2 weeks, 13-week old Tsk mice
Procedure: (§2) Collagen content, thickness of subcutaneous fibrous layer, mast cell number, chymase activity and chymase mRNA were measured in the skin of Tsk mice (Rheum. Dis. Clin. North Am. 16, 153, 1990), and compared with the control mice (pallid mice) at the ages of 5, 10, and 20 weeks (n=6). The collagen content was determined by measuring hydroxyproline, the marker for collagen, using HPLC, whereas fibrous layer thickness was determined by histological analysis with Azan staining followed by measuring the area of the fibrous layer using an image analysis system. The density of mast cells was calculated by counting the number of cells with stained granules by toluidine blue staining. Chymase was extracted from the skin according to the method described previously (Arch. Dermatol. Res. 290, 553, 1998), and the activity determined as described in Example 2. The mRNA for the skin chymase (MMCP-4) was measured only at 10 weeks of age by competitive RT-PCR method (Biotechniques 21, 268, 1996).
13-week old Tsk mice (n=5) were intra peritoneally administered a chymase inhibitor (Compound 18) in a dosage of 50 mg/kg/day once a day every day for 2 weeks. Five hours after the final administration, the degree of hypertrophy of the subcutaneous fibrous layer and the skin-chymase activity were measured and compared with the values of the group administered saline. […]

[4] = biological target: T2, skin chymase (Mus musculus, UniProt P21812); assay: Tsk mice, model for scleroderma: skin chymase activity; format: in vivo; conditions: 50 mg/kg/day i.p. once a day for 2 weeks, 13-week old Tsk mice, 5 hours after final administration
T2 construct: Chymase was extracted from the skin according to the method described previously; from tissue; host or cells: skin of Tsk mice
T2 sequence (P21812 21-246): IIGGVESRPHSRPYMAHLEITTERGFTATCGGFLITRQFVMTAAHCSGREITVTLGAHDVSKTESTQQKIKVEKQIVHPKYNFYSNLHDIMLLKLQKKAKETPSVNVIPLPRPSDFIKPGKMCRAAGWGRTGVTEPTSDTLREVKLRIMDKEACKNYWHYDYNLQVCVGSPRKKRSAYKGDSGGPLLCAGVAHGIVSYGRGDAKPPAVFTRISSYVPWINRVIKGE
Procedure: as §1
as §2, with “Chymase was extracted from the skin according to the method described previously (Arch. Dermatol. Res. 290, 553, 1998), and the activity determined as described in Example 2. The mRNA for the skin chymase (MMCP-4) was measured only at 10 weeks of age by competitive RT-PCR method (Biotechniques 21, 268, 1996).” left out

[5] = tested on: bleomycin-induced pulmonary fibrosis in mice; assay: Bleomycin-induced pulmonary fibrosis model: effect of chymase inhibitor on lung hydroxyproline; format: in vivo, ICR mice; conditions: five days a week over 2 weeks, bleomycin 0.08 mg
Procedure: (§3) Pulmonary fibrosis was induced by intratracheal administration of bleomycin (Nippon Kayaku) to 10 week old male ICR mice (Charles River Japan) under anesthesia (n=10). That is, bleomycin (0.04 mg or 0.08 mg) was suspended in 50 μl of saline and administered into the airways using a 100 μl syringe (made by Hamilton Co.) Two weeks after the administration of bleomycin, the lungs were excised and the amount of hydroxyproline, an indicator of tissue collagen, was assayed according to the method as described previously (Anal. Biochem. 19, 249, 1967). Further, the amount of hydroxyproline was expressed as an amount per lung. Further, mice similarly administered saline instead of bleomycin were used as a control (n=10).
Pulmonary fibrosis was induced in accordance with the method described in Example 5 (n=10) and the amount of hydroxyproline in pulmonary tissue was assayed in the same way as in Example 5 in order to investigate the effect of a chymase inhibitor (Compound 34) on pulmonary fibrosis. Further, the chymase inhibitor was suspended in saline containing 0.5% hydroxypropyl cellulose (HPC/saline) and administered intraperitoneally at a dose of 10 mg/kg or 50 mg/kg once a day for five days a week over 2 weeks, starting immediately after the bleomycin administration. […]

[6] = tested on: ICR mice; assay: Change in hydroxyproline content in lung after intratracheal bleomycin; format: in vivo; conditions: 2 weeks after administration
Procedure: as §3

[7] = tested on: pulmonary chymase; assay: Change in pulmonary chymase activity after intratracheal bleomycin; format: in vivo, mice; conditions: bleomycin 0.08 mg intratracheal, 2 weeks after administration

Row | Molecule | IC50 [1] [nM] | other results
1 | Nc1ccccc1S(=O)(=O)n1c(=O)[nH]c2cc(Cl)ccc2c1=O [Compound 2, 3-(2-aminobenzenesulfonyl)-7-chloro-2.4(1H,3H)-quinazolinedione] | 140 | –
2 | Nc1cc(S(=O)(=O)n2c(=O)[nH]c3cc(Cl)ccc3c2=O)ccc1Cl [Compound 8, 3-(3-amino-4-chlorobenzenesulfonyl)-7-chloro-2,4(1H,3H)-quinazolinedione] | 35 | –
3 | Nc1cccc(S(=O)(=O)n2c(=O)[nH]c3cc(Cl)ccc3c2=O)c1 [Compound 12, 3-(3-aminobenzenesulfonyl)-7-chloro-2,4(1H,3H)-quinazolinedione] | 440 | –
4 | CC(C(=O)O)C(=O)Nc1cccc(S(=O)(=O)n2c(=O)[nH]c3cc(Cl)ccc3c2=O)c1 (stereo not shown) [Compound 13, 2-{3-[(7-chloro-2,4(1H,3H)-quinazolinedion-3-yl)sulfonyl]phenylaminocarbonyl}propionic acid] | 300 | –
5 | O=C(O)c1cc(S(=O)(=O)n2c(=O)[nH]c3cc(Cl)ccc3c2=O)ccc1O [Compound 21, 5-[(7-chloro-2,4(1H,3H)-quinazolinedion-3-yl)sulfonyl]salicylic acid] | 340 | –
6 | COc1ccc(S(=O)(=O)n2c(=O)[nH]c3cc(Cl)ccc3c2=O)cc1NC(C)=O [Compound 22] | 300 | –
7 | COc1ccc2c(=O)n(S(=O)(=O)c3ccc(C(=O)O)c(N)c3)c(=O)[nH]c2c1 [Compound 27, 4-[(7-methoxy-2,4(1H,3H)-quinazolinedion-3-yl)sulfonyl]anthranilic acid] | 4000 | –
8 | CS(=O)(=O)O.Nc1cccc(S(=O)(=O)n2c(=O)[nH]c3cc(Cl)ccc3c2=O)c1 [Compound 34, 3-(3-aminobenzenesulfonyl)-7-chloro-2,4-(1H,3H)quinazolinedion methanesulfonic acid salt] | 360 | effect on the increase of the amount of hydroxyproline in the lung ([5]; 10 mg/kg i.p. once a day): little effect; rate of suppression of the increase of the amount of hydroxyproline in the lung ([5]; 50 mg/kg i.p. once a day): about 46%
9 | bleomycin | – | hydroxyproline content in the lung as compared with the saline group ([6]; bleomycin 0.04 mg/mouse intratracheal): 1.15 fold; hydroxyproline content in the lung as compared with the saline group ([6]; bleomycin 0.08 mg/mouse intratracheal): 1.25 fold; pulmonary chymase activity relative to the group administered saline [7]: about 4.5 times

Further molecules by falling IC50 [1], results first:

Row | IC50 [1] [nM] | Molecule | other results
10 | 1700 | O=C(O)C1Oc2ccc(S(=O)(=O)n3c(=O)[nH]c4cc(Cl)ccc4c3=O)cc2NC1=O (racemic) [Compound 29, (±)-6-[(7-chloro-2,4(1H,3H)-quinazolinedion-3-yl)sulfonyl]-3-oxo-1,4-benzoxazine-2-carboxylic acid] | –
11 | 1500 | Nc1cc(S(=O)(=O)n2c(=O)[nH]c3ccc(Cl)cc3c2=O)ccc1C(=O)O [Compound 32, 4-[(6-chloro-2,4(1H,3H)-quinazolinedion-3-yl)sulfonyl]anthranilic acid] | –
12 | 840 | O=C(O)c1ccc(S(=O)(=O)n2c(=O)[nH]c3cc(Cl)ccc3c2=O)cc1O [Compound 16, 4-[(7-chloro-2,4(1H,3H)-quinazolinedion-3-yl)sulfonyl]salicylic acid monosodium salt] | –
13 | 360 | O=c1[nH]c2cc(Cl)ccc2c(=O)n1S(=O)(=O)c1cccc(O)c1 [Compound 1, 7-chloro-3-(3-hydroxybenzenesulfonyl)-2,4(1H,3H)-quinazolinedione] | –
14 | 320 | COc1ccc(S(=O)(=O)n2c(=O)[nH]c3cc(Cl)ccc3c2=O)cc1NS(C)(=O)=O [Compound 24, 7-chloro-3-(4-methoxy-3-methylsulfonylaminobenzenesulfonyl)-2,4(1H,3H)-quinazolinedione] | –
15 | 170 | Cc1ccc(S(=O)(=O)n2c(=O)[nH]c3cc(Cl)ccc3c2=O)cc1N [Compound 10, 3-(3-amino-4-methylbenzenesulfonyl)-7-chloro-2,4(1H,3H)-quinazolinedione] | –
16 | 140 | Nc1cc(S(=O)(=O)n2c(=O)[nH]c3cc(Cl)ccc3c2=O)ccc1C(=O)O [Compound 17, 4-[(7-chloro-2,4(1H,3H)-quinazolinedion-3-yl)sulfonyl]anthranilic acid] | –
17 | 140 | Nc1cc(S(=O)(=O)n2c(=O)[nH]c3cc(Cl)ccc3c2=O)ccc1C(=O)[O-].[Na+] [Compound 18, 4-[(7-chloro-2,4(1H,3H)-quinazolinedion-3-yl)sulfonyl]anthranilic acid monosodium salt] | inhibition of chymase activity in the intestines compared with the group administered saline ([2]; small intestines): approximately 80%; inhibition of chymase activity in the tongue, back skin, and legs ([2]; tongue, back skin, legs): about 50%; thickness of the subcutaneous fibrous layer, % of that for the group administered saline [3]: about 60%; skin chymase activity, % of that of the group administered saline [4]: 57%
